Test results as given in patent US12606541B2, “PPARg modulators and methods of use” (Eisai R&D Management Co., Ltd., priority 2020, dated 2026).
pIC50: −log10 of the molar value. Where two headings read alike, the source gives them in different places.

Assays:
UM-UC-9 engineered cells = test: Cell proliferation / short-term viability assay, CellTiter-Glo 144 h; format: cell-based, human; settings: read-out: CTGlo 144 h UMUC9.5, G150
Summary of the method: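 Viability read by CellTiter-Glo 2.0 luminescence at day 7 versus DMSO-vehicle wells and a T0 plate measured on day 0. Cells: UM-UC-9 engineered assay-ready stocks, 500 cells/well in high-glucose DMEM with 10% FBS, 37° C, 5% CO2.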

His6-TEV-PPARγ-(234-505) = target: T1, His6-TEV-PPARγ-(234-505) (Homo sapiens, UniProt P37231); test: TR-FRET Assay to Measure Co-R Peptide Recruitment to PPARγ; format: biochemical; settings: Co-R peptide (SMRT-ID2) recruitment; top final concentration 20 μM; read-out: TR-FRET i-Ag; AC50
T1 construct: The His6-TEV-PPARγ-(234-505) protein for assay was expressed and purified; TEV cleavage site (N); made in house
T1 sequence (P37231 234-505): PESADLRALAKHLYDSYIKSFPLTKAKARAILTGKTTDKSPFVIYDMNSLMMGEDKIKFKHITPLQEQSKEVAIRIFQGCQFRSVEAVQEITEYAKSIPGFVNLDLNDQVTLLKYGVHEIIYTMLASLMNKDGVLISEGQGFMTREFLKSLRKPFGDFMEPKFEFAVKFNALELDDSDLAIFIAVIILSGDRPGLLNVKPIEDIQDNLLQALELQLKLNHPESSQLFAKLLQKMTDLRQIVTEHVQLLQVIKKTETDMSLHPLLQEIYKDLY
Summary of the method: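 Corepressor recruitment is measured by adding terbium-labeled anti-His antibody and FITC SMRT-ID2 peptide, at 5 and 200 nM final, after a 20-minute room-temperature protein–compound incubation. After one further hour, signal is converted to percent response between DMSO and 500 nM T0070907 wells.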

AC50 (His6-TEV-PPARγ-(234-505))	Structure (SMILES)	pIC50 (UM-UC-9 engineered cells)	pIC50 (UM-UC-9 engineered cells; Homo sapiens, UM-UC-9, 144 h)
129 nM	COc1cc(-c2cc(C(=O)N3CC[C@H](C(=O)NC4CCC5CCCN5C4)CC34CC4)n[nH]2)c(F)cn1 (single isomer, unassigned) [Example 376-D]	7.15	–
375 nM	COc1cc(-c2cc(C(=O)N3CC[C@H](C(=O)NC4CCN(C5COC56CNC6)C4)CC34CC4)n[nH]2)c(F)cn1 (single isomer, unassigned) [Example 461-C]	< 5.00	–
29.5 nM	COc1cc(-c2cc(C(=O)N3CC[C@H](C(=O)NCc4nc(N5C[C@@H](C)N[C@@H](C)C5)oc4C(F)(F)F)CC34CC4)n[nH]2)c(F)cn1 [Example 482, (S)—N-((2-((3S,5R)-3,5-dimethylpiperazin-1-yl)-5-(trifluoromethyl)oxazol-4-yl)methyl)-4-(5-(5-fluoro-2-methoxypyridin-4-yl)-1H-pyrazole-3-carbonyl)-4-azaspiro[2.5]octane-7-carboxamide]	–	6.57
17.4 nM	COc1cc(-c2cc(C(=O)N3CC[C@H](C(=O)NCc4c(C(F)(F)F)cnn4C)CC34CC4)[nH]n2)c(F)cn1 [Example 507, (S)-4-(3-(5-fluoro-2-methoxypyridin-4-yl)-1H-pyrazole-5-carbonyl)-N-((1-methyl-4-(trifluoromethyl)-1H-pyrazol-5-yl)methyl)-4-azaspiro[2.5]octane-7-carboxamide]	–	7.85
14800 nM	COc1cc(-c2cc(C(=O)N3CC[C@@H](C(=O)N[C@@H]4CCN(CC(C)(C)O)C4)CC34CC4)[nH]n2)c(F)cn1 [Example 344-A, (R)-4-(3-(5-fluoro-2-methoxypyridin-4-yl)-1H-pyrazole-5-carbonyl)-N—((R)-1-(2-hydroxy-2-methylpropyl)pyrrolidin-3-yl)-4-azaspiro[2.5]octane-7-carboxamide]	–	< 5.00
18000 nM	Cc1cc(-c2cc(C(=O)N3CC[C@@H](C(=O)NC4CCC5(CCO5)CC4)CC34CC4)n[nH]2)ncn1 (mixture of isomers) [Example 300-A, (R)-4-(5-(6-methylpyrimidin-4-yl)-1H-pyrazole-3-carbonyl)-N-(1-oxaspiro[3.5]nonan-7-yl)-4-azaspiro[2.5]octane-7-carboxamide]	–	< 5.40
3.3 nM	COc1cc(-c2cc(C(=O)N3CC[C@H](C(=O)NCc4cnccc4C(F)(F)F)CC34CC4)n[nH]2)c(F)cn1 [Example 516, (S)-4-(5-(5-fluoro-2-methoxypyridin-4-yl)-1H-pyrazole-3-carbonyl)-N-((4-(trifluoromethyl)pyridin-3-yl)methyl)-4-azaspiro[2.5]octane-7-carboxamide]	–	8.00
19.8 nM	COc1cc(-c2cc(C(=O)N3CCC(C(=O)N[C@@H]4CCN(c5ccccc5F)C4)CC34CC4)n[nH]2)c(F)cn1 (stereo partly drawn) [Example 296, 4-[5-(5-fluoro-2-methoxypyridin-4-yl)-1H-pyrazole-3-carbonyl]-N—[(R)-1-(2-fluorophenyl)pyrrolidin-3-yl]-4-azaspiro[2.5]octane-7-carboxamide]	–	8.39
490 nM	COc1cc(-c2cc(C(=O)N3CCC(C(=O)NCc4ccc5oc(=O)n(C)c5c4)CC3)n[nH]2)c(Cl)cn1 [Example 228, 1-(5-(5-chloro-2-methoxypyridin-4-yl)-1H-pyrazole-3-carbonyl)-N-((3-methyl-2-oxo-2,3-dihydrobenzo[d]oxazol-5-yl)methyl)piperidine-4-carboxamide]	–	< 5.00
982 nM	COc1cc(-c2cc(C(=O)N3CCC(C(=O)NCc4cn(C)nc4C)CC3)n[nH]2)c(Cl)cn1 [Example 124, 1-(5-(5-chloro-2-methoxypyridin-4-yl)-1H-pyrazole-3-carbonyl)-N-((1,3-dimethyl-1H-pyrazol-4-yl)methyl)piperidine-4-carboxamide]	–	5.30
9 nM	COc1cc(-c2cc(C(=O)N3CCC(C(=O)NCc4ccc5[nH]c(C)c(C)c5c4)CC3)n[nH]2)c(F)cn1 [Example 272, N-[(2,3-dimethyl-1H-indol-5-yl)methyl]-1-[5-(5-fluoro-2-methoxypyridin-4-yl)-1H-pyrazole-3-carbonyl]piperidine-4-carboxamide]	–	6.96
231 nM	COc1cc(-c2cc(C(=O)N3CC[C@H](C(=O)NC4CCN(S(C)(=O)=O)CC4)CC34CC4)n[nH]2)c(F)cn1 [Example 420, (S)-4-(5-(5-fluoro-2-methoxypyridin-4-yl)-1H-pyrazole-3-carbonyl)-N-(1-(methylsulfonyl)piperidin-4-yl)-4-azaspiro[2.5]octane-7-carboxamide]	–	5.86
164 nM	COc1cc(-c2cc(C(=O)N3CC[C@H](C(=O)NCc4ncc(F)cc4N4CCN(C)CC4)CC34CC4)n[nH]2)c(F)cn1 [Example 404, (S)-4-(5-(5-fluoro-2-methoxypyridin-4-yl)-1H-pyrazole-3-carbonyl)-N-((5-fluoro-3-(4-methylpiperazin-1-yl)pyridin-2-yl)methyl)-4-azaspiro[2.5]octane-7-carboxamide]	–	6.05

Structure (SMILES)	AC50 (His6-TEV-PPARγ-(234-505))	pIC50 (UM-UC-9 engineered cells)	pIC50 (UM-UC-9 engineered cells; Homo sapiens, UM-UC-9, 144 h)
COc1cc(-c2[nH]nc(C(=O)N3CCC(C(=O)NC4CCC(C)CC4)CC3)c2Cl)ccn1 (mixture of isomers) [Example 110, 1-[4-chloro-5-(2-methoxypyridin-4-yl)-1H-pyrazole-3-carbonyl]-N-[(1s,4s)-4-methylcyclohexyl]piperidine-4-carboxamide and 1-[4-chloro-5-(2-methoxypyridin-4-yl)-1H-pyrazole-3-carbonyl]-N-[(1r,4r)-4-methylcyclohexyl]piperidine-4-carboxamide]	575 nM	5.92	–
COc1cc(-c2cc(C(=O)N3CCC(C(=O)NC4CCOc5ccc(C)nc54)CC34CC4)n[nH]2)c(F)cn1 (mixture of isomers) [Example 380, (S)-4-(5-(5-fluoro-2-methoxypyridin-4-yl)-1H-pyrazole-3-carbonyl)-N—((R)-6-methyl-3,4-dihydro-2H-pyrano[3,2-b]pyridin-4-yl)-4-azaspiro[2.5]octane-7-carboxamide and (S)-4-(5-(5-fluoro-2-methoxypyridin-4-yl)-1H-pyrazole-3-carbonyl)-N—((S)-6-methyl-3,4-dihydro-2H-pyrano[3,2-b]pyridin-4-yl)-4-azaspiro[2.5]octane-7-carboxamide]	30.6 nM	7.36	–
Cc1nccc(-c2cc(C(=O)N3[C@@H]4CC[C@H]3C[C@H](C(=O)N[C@H]3CC[C@@](O)(C(F)(F)F)CC3)C4)n[nH]2)c1C [Example 314, (1R,3s,5S)-8-(5-(2,3-dimethylpyridin-4-yl)-1H-pyrazole-3-carbonyl)-N-((1r,4R)-4-hydroxy-4-(trifluoromethyl)cyclohexyl)-8-azabicyclo[3.2.1]octane-3-carboxamide]	347 nM	–	< 5.00
COc1cnc(CNC(=O)C2CCN(C(=O)c3cc(-c4cc(C)ncc4F)[nH]n3)C3(CC3)C2)c(Cl)c1 (racemic) [Example 484, (S)—N-((3-chloro-5-methoxypyridin-2-yl)methyl)-4-(5-(5-fluoro-2-methylpyridin-4-yl)-1H-pyrazole-3-carbonyl)-4-azaspiro[2.5]octane-7-carboxamide and (R)—N-((3-chloro-5-methoxypyridin-2-yl)methyl)-4-(5-(5-fluoro-2-methylpyridin-4-yl)-1H-pyrazole-3-carbonyl)-4-azaspiro[2.5]octane-7-carboxamide]	3.8 nM	7.69	–
COc1cc(-c2cc(C(=O)N3CCC(C(=O)NC4CCN(c5cnnc(C)c5)C4)CC34CC4)n[nH]2)c(F)cn1 (mixture of isomers) [Example 452, (S)-4-(5-(5-fluoro-2-methoxypyridin-4-yl)-1H-pyrazole-3-carbonyl)-N—((S)-1-(6-methylpyridazin-4-yl)pyrrolidin-3-yl)-4-azaspiro[2.5]octane-7-carboxamide and ('S)-4-(5-(5-fluoro-2-methoxypyridin-4-yl)-1H-pyrazole-3-carbonyl)-N—((R)-1-(6-methylpyridazin-4-yl)pyrrolidin-3-yl)-4-azaspiro[2.5]octane-7-carboxamide]	33.4 nM	5.62	–
COc1cc(-c2cc(C(=O)N3CCC(C(=O)NC4CCN(c5ncc(C#N)cn5)C4)CC34CC4)n[nH]2)c(F)cn1 (mixture of isomers) [Example 472, (S)—N—((R)-1-(5-cyanopyrimidin-2-yl)pyrrolidin-3-yl)-4-(5-(5-fluoro-2-methoxypyridin-4-yl)-1H-pyrazole-3-carbonyl)-4-azaspiro[2.5]octane-7-carboxamide and (S)—N—((S)-1-(5-cyanopyrimidin-2-yl)pyrrolidin-3-yl)-4-(5-(5-fluoro-2-methoxypyridin-4-yl)-1H-pyrazole-3-carbonyl)-4-azaspiro[2.5]octane-7-carboxamide]	2.9 nM	7.62	–
